Assay results taken from PubChem BioAssay AID1963873 (Molecular Pharmacology Branch, DTP, NCI, 2024).
Active and inactive are the calls of the source. The calls were made as follows: active = viability on the fitted dose curve at most 10% of control; inactive = the rest.

Tested on: 276233-004-R-J1-PDC KRAS spheroids with HUVEC/MSC, viability
Test: Anticancer human tumor 276233-004-R-J1-PDC patient-derived colon adenocarcinoma cell line growth inhibition [KRAS2]
Settings: for IC50: curve of first compound; for viability, T/C: stronger effect = lower value
Method in brief: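 Combination screen of spheroid viability in tumor-cell co-cultures with endothelial (HUVEC) and mesenchymal stem cell stroma. Each agent was tested in half-log dilutions, topping at clinical Cmax or at 10 microM without a known Cmax.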

[1] = second compound 0.1 µM, first compound 0.000316 µM
[2] = second compound 0.1 µM, first compound 0.001 µM
[3] = second compound 0.1 µM, first compound 0.00316 µM
[4] = second compound 0.1 µM, first compound 0.01 µM
[5] = second compound 0.1 µM, first compound 0.0316 µM
[6] = second compound 0.1 µM, first compound 0.1 µM
[7] = second compound 0.316 µM, first compound 0.000316 µM
[8] = second compound 0.316 µM, first compound 0.001 µM
[9] = second compound 0.316 µM, first compound 0.00316 µM
[10] = second compound 0.316 µM, first compound 0.01 µM
[11] = second compound 0.316 µM, first compound 0.0316 µM
[12] = second compound 0.316 µM, first compound 0.1 µM
[13] = second compound 1 µM, first compound 0.000316 µM
[14] = second compound 1 µM, first compound 0.001 µM
[15] = second compound 1 µM, first compound 0.00316 µM
[16] = second compound 1 µM, first compound 0.01 µM
[17] = second compound 1 µM, first compound 0.0316 µM
[18] = second compound 1 µM, first compound 0.1 µM
[19] = second compound 3.16 µM, first compound 0.000316 µM
[20] = second compound 3.16 µM, first compound 0.001 µM
[21] = second compound 3.16 µM, first compound 0.00316 µM
[22] = second compound 3.16 µM, first compound 0.01 µM
[23] = second compound 3.16 µM, first compound 0.0316 µM
[24] = second compound 3.16 µM, first compound 0.1 µM
[25] = second compound 10 µM, first compound 0.01 µM
[26] = second compound 10 µM, first compound 0.0316 µM
[27] = second compound 10 µM, first compound 0.1 µM
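For IC50 in this document: cells exposed to agents for seven days before viability read.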
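For viability, T/C in this document: cells exposed to agents for seven days before viability read; 100% = DMSO vehicle control wells and lower values mean fewer viable cells.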

| SMILES | IC50 (second compound 0.1 µM) [nM] | IC50 (second compound 0.316 µM) [nM] | IC50 (second compound 1 µM) [nM] | IC50 (second compound 3.16 µM) [nM] | viability, T/C [1] [%] | viability, T/C [2] [%] | viability, T/C [3] [%] | viability, T/C [4] [%] | viability, T/C [5] [%] | viability, T/C [6] [%] | viability, T/C [7] [%] | viability, T/C [10] [%] | viability, T/C [11] [%] | viability, T/C [12] [%] | viability, T/C [16] [%] | viability, T/C [17] [%] | viability, T/C [18] [%] | viability, T/C [22] [%] | viability, T/C [23] [%] | viability, T/C [24] [%] | further results |
| --- | --- | --- | --- | --- | --- | --- | --- | --- | --- | --- | --- | --- | --- | --- | --- | --- | --- | --- | --- | --- | --- |
| CC(C)n1nc(-c2ccc3oc(N)nc3c2)c2c(N)ncnc21 + C=CC(=O)N1CCN(c2nc(OCC3CCCN3C)nc3c2CCN(c2cccc4cccc(C)c24)C3)CC1CC#N | > 100 | > 100 | > 100 | 45.8 | 95.8 | 85.6 | 80.9 | 62.8 | 63.2 | 55.6 | 85.9 | 62.9 | 56.4 | 52.8 | 70.9 | 65.5 | 70.1 | 75.6 | 65.8 | 16.1 | IC50 (second compound 0.0316 µM): > 100 nM; viability, T/C (second compound 0.0316 µM, first compound 0.000316 µM): 88.4%; viability, T/C (second compound 0.0316 µM, first compound 0.001 µM): 143%; viability, T/C (second compound 0.0316 µM, first compound 0.00316 µM): 83%; viability, T/C (second compound 0.0316 µM, first compound 0.01 µM): 85.3%; viability, T/C (second compound 0.0316 µM, first compound 0.0316 µM): 63.2%; viability, T/C (second compound 0.0316 µM, first compound 0.1 µM): 57.4%; viability, T/C [8]: 90.2%; viability, T/C [9]: 87.6%; viability, T/C [13]: 82.8%; viability, T/C [14]: 110%; viability, T/C [15]: 81.2%; viability, T/C [19]: 72.6%; viability, T/C [20]: 55.3%; viability, T/C [21]: 69.8% |
| COc1cc(OC)cc(N(CCNC(C)C)c2ccc3ncc(-c4cnn(C)c4)nc3c2)c1 |  |  |  |  |  |  |  |  |  |  |  |  |  |  |  |  |  |  |  |  | viability, T/C (compound 0.0316 µM): 76.3% [middle of 5 runs]; viability, T/C (compound 0.1 µM): 67.4% [middle of 5 runs]; viability, T/C (compound 0.316 µM): 67% [middle of 5 runs] |
| CC(=O)OC12COC1CC(O)C1(C)C(=O)C(O)C3=C(C)C(OC(=O)C(O)C(NC(=O)OC(C)(C)C)c4ccccc4)CC(O)(C(OC(=O)c4ccccc4)C21)C3(C)C (stereo not drawn) + CC1OCC2(CCN(c3cnc(Sc4ccnc(N)c4Cl)c(N)n3)CC2)C1N | > 3160 | > 3160 | > 3160 | < 10 |  |  |  | 61.6 | 69.1 | 60 |  | 70.4 | 72.9 | 65.5 | 91.1 | 75.5 | 84.9 | 47.4 | 39.1 | 50.6 | IC50 (second compound 10 µM): < 10 nM; viability, T/C (second compound 0.1 µM, first compound 0.316 µM): 73.8%; viability, T/C (second compound 0.1 µM, first compound 1 µM): 66.5%; viability, T/C (second compound 0.1 µM, first compound 3.16 µM): 76.2%; viability, T/C (second compound 0.316 µM, first compound 0.316 µM): 55.9%; viability, T/C (second compound 0.316 µM, first compound 1 µM): 66.9%; viability, T/C (second compound 0.316 µM, first compound 3.16 µM): 65.4%; viability, T/C (second compound 1 µM, first compound 0.316 µM): 84.5%; viability, T/C (second compound 1 µM, first compound 1 µM): 84.3%; viability, T/C (second compound 1 µM, first compound 3.16 µM): 93.8%; viability, T/C (second compound 3.16 µM, first compound 0.316 µM): 40.5%; viability, T/C (second compound 3.16 µM, first compound 1 µM): 44.1%; viability, T/C (second compound 3.16 µM, first compound 3.16 µM): 40.9%; viability, T/C [25]: 41.6%; viability, T/C [26]: 44.7%; viability, T/C [27]: 42%; viability, T/C (second compound 10 µM, first compound 0.316 µM): 34.7%; viability, T/C (second compound 10 µM, first compound 1 µM): 42.6%; viability, T/C (second compound 10 µM, first compound 3.16 µM): 35% |
| CN(C)C/C=C/C(=O)Nc1cc2c(Nc3ccc(F)c(Cl)c3)ncnc2cc1O[C@H]1CCOC1 + CC1OCC2(CCN(c3cnc(Sc4ccnc(N)c4Cl)c(N)n3)CC2)C1N | > 100 | > 100 | > 100 | 83.3 | 95.9 | 96.1 | 92.4 | 71.3 | 80.1 | 81.6 | 80.7 | 81.1 | 75.5 | 78.1 | 97.9 | 104 | 79.5 | 51.1 | 54.5 | 48.8 | IC50 (second compound 10 µM): > 100 nM; viability, T/C [8]: 76.6%; viability, T/C [9]: 94.3%; viability, T/C [13]: 93.2%; viability, T/C [14]: 95.5%; viability, T/C [15]: 104%; viability, T/C [19]: 56.4%; viability, T/C [20]: 53%; viability, T/C [21]: 48.7%; outcome (second compound 10 µM, first compound 0.000316 µM): inactive; outcome (second compound 10 µM, first compound 0.001 µM): inactive; viability, T/C (second compound 10 µM, first compound 0.00316 µM): 52.6%; outcome [25]: inactive; viability, T/C [26]: 50.9%; viability, T/C [27]: 55.4% |
